{"source": "patent US4511577A", "about": "“Derivatives of benzoic acid” (Media Research s.r.l., priority 1983, dated 1985)", "key": {"[1]": {"assay": "tail-flick test (analgesic activity)", "type": "in vivo", "conditions": "75 mg/kg os; for AREA Δ % (tail-flick): control 170.45", "experimental": "The analgesic activity was determined according to the tail-flick test, employing an apparatus supplied by Socrel Ltd., Milano, Italy."}, "[2]": {"tested_on": "carrageenin induced oedema in rat paw", "assay": "carrageenin induced oedema in rat paw (antiinflammatory activity)", "type": "in vivo", "conditions": "75 mg/kg per os; for AREA Δ % (paw volume): control 243.3; for paw average volume, 30' / paw average volume, 1h / paw average volume, 2h / paw average volume, 3h / paw average volume, 6h / paw average volume, Basal: 5 animals", "experimental": "The antiinflammatory activity of MR-[…] in comparison with acetylsalicylic acid was determined by the test of carrageenin induced oedema in rat paw, according to the method of Winter, […], Ness. (Proc. Soc. Exp. Biol. Med., 111, 544-547, 1962). […] The paw volume was determined using an apparatus supplied by U. Basile Ltd."}, "gastric mucosa": {"tested_on": "gastric mucosa", "assay": "gastro-injuring action on the gastric mucosa", "type": "in vivo, Male Sprague-Dawley rats", "conditions": "oral, equimolecular doses, rats fasted 48 hours", "experimental": "The action on the gastric mucosa of MR-Y134 in comparison with equimolecular doses of ASA was determined according to the method described by Pisanti and Volterra (I1 Farmaco, vol. 25, (2), 105).\nThe products were administered orally.\nMale Sprague-Dawley rats were used fastened for 48 hours with water ad libitum.\nThe control group was administered with the solvent only (1% carboxymethylcellulose)."}, "[3]": {"assay": "plasmatic kinetics in rat after oral administration", "experimental": "The plasmatic kynetic of acetylsalicylic acid in rat was compared after oral administration of equimolecular doses of MR-Y134 and […] (466 mg/kg MR-Y134 and 300 mg/kg ASA respectively).\nThe compounds were both administered in the form of 2% gum arabic suspension to rats fastened for 12 hours. Each animal was administered with 1.0 ml of solution.\nThe rats were killed at the following times: 1, 2, 4, 8, 12 hours after the administration of the compounds.\nThe blood sample was drawn in heparin."}}, "data": [{"smiles": "CC(=O)Oc1ccccc1C(=O)O", "note": "[ASA, acetylsalicylic acid]", "values": [{"measurement": "% inhibition versus control (area, tail-flick)", "setting": "[1]", "result": 16.61, "unit": "%"}, {"measurement": "AREA Δ % (tail-flick)", "setting": "[1]", "result": "142.13 Δ %"}, {"measurement": "Percent variation of reaction time with respect to 0 time, 1h", "setting": "[1]", "result": 23.01, "unit": "%"}, {"measurement": "Reaction time, 1h", "setting": "[1]", "result": 7.16, "unit": "s"}, {"measurement": "Percent variation of reaction time with respect to 0 time, 3h", "setting": "[1]", "result": 26.66, "unit": "%"}, {"measurement": "Reaction time, 3h", "setting": "[1]", "result": 6.82, "unit": "s"}, {"measurement": "Percent variation of reaction time with respect to 0 time, 6h", "setting": "[1]", "result": 27.31, "unit": "%"}, {"measurement": "Reaction time, 6h", "setting": "[1]", "result": 6.76, "unit": "s"}, {"measurement": "Reaction time, Basal", "setting": "[1]", "result": 9.30, "unit": "s"}, {"measurement": "% inhibition versus control (area, paw oedema)", "setting": "[2]", "result": 53.41, "unit": "%"}, {"measurement": "AREA Δ % (paw volume)", "setting": "[2]", "result": "113.35 Δ %"}, {"measurement": "Percent variation of paw volume with respect to 0 time, 30'", "setting": "[2]", "result": 9.71, "unit": "%"}, {"measurement": "paw average volume, 30'", "setting": "[2]", "result": 1.69, "unit": "mL"}, {"measurement": "Percent variation of paw volume with respect to 0 time, 1h", "setting": "[2]", "result": 13.57, "unit": "%"}, {"measurement": "paw average volume, 1h", "setting": "[2]", "result": 1.75, "unit": "mL"}, {"measurement": "Percent variation of paw volume with respect to 0 time, 2h", "setting": "[2]", "result": 16.30, "unit": "%"}, {"measurement": "paw average volume, 2h", "setting": "[2]", "result": 1.79, "unit": "mL"}, {"measurement": "Percent variation of paw volume with respect to 0 time, 3h", "setting": "[2]", "result": 17.71, "unit": "%"}, {"measurement": "paw average volume, 3h", "setting": "[2]", "result": 1.81, "unit": "mL"}, {"measurement": "Percent variation of paw volume with respect to 0 time, 6h", "setting": "[2]", "result": 62.13, "unit": "%"}, {"measurement": "paw average volume, 6h", "setting": "[2]", "result": 2.49, "unit": "mL"}, {"measurement": "paw average volume, Basal", "setting": "[2]", "result": 1.55, "unit": "mL"}]}, {"smiles": "O=C(Oc1ccccc1C(=O)O)c1cccs1", "note": "[MR-Y134, 2-(2-thenoyloxy)-benzoic acid]", "values": [{"measurement": "gastro-injuring activity compared with ASA", "setting": "gastric mucosa", "result": "scarce gastro-injuring activity, substantially lower than the one of ASA"}, {"measurement": "height of plasma peak compared with sodium salicylate", "setting": "[3]; rat, in vivo, po", "result": "substantially higher"}, {"measurement": "persistence in the bloodstream", "setting": "[3]; rat, in vivo, po", "result": "higher and more prolonged persistence in the bloodstream"}, {"measurement": "time of plasma peak", "setting": "[3]; rat, in vivo, po", "result": "third hour"}, {"measurement": "% inhibition versus control (area, tail-flick)", "setting": "[1]", "result": 50.18, "unit": "%"}, {"measurement": "AREA Δ % (tail-flick)", "setting": "[1]", "result": "84.91 Δ %"}, {"measurement": "Percent variation of reaction time with respect to 0 time, 1h", "setting": "[1]", "result": 9.36, "unit": "%"}, {"measurement": "Reaction time, 1h", "setting": "[1]", "result": 8.9, "unit": "s"}, {"measurement": "Percent variation of reaction time with respect to 0 time, 3h", "setting": "[1]", "result": 18.94, "unit": "%"}, {"measurement": "Reaction time, 3h", "setting": "[1]", "result": 7.96, "unit": "s"}, {"measurement": "Percent variation of reaction time with respect to 0 time, 6h", "setting": "[1]", "result": 15.68, "unit": "%"}, {"measurement": "Reaction time, 6h", "setting": "[1]", "result": 8.28, "unit": "s"}, {"measurement": "Reaction time, Basal", "setting": "[1]", "result": 9.82, "unit": "s"}, {"measurement": "analgesic activity compared with ASA", "setting": "[1]; equal amounts by weight", "result": "three times higher than the one of ASA"}, {"measurement": "% inhibition versus control (area, paw oedema)", "setting": "[2]", "result": 47.51, "unit": "%"}, {"measurement": "AREA Δ % (paw volume)", "setting": "[2]", "result": "127.69 Δ %"}, {"measurement": "Percent variation of paw volume with respect to 0 time, 30'", "setting": "[2]", "result": 8.03, "unit": "%"}, {"measurement": "paw average volume, 30'", "setting": "[2]", "result": 1.71, "unit": "mL"}, {"measurement": "Percent variation of paw volume with respect to 0 time, 1h", "setting": "[2]", "result": 14.96, "unit": "%"}, {"measurement": "paw average volume, 1h", "setting": "[2]", "result": 1.82, "unit": "mL"}, {"measurement": "Percent variation of paw volume with respect to 0 time, 2h", "setting": "[2]", "result": 14.18, "unit": "%"}, {"measurement": "paw average volume, 2h", "setting": "[2]", "result": 1.8, "unit": "mL"}, {"measurement": "Percent variation of paw volume with respect to 0 time, 3h", "setting": "[2]", "result": 20.46, "unit": "%"}, {"measurement": "paw average volume, 3h", "setting": "[2]", "result": 1.9, "unit": "mL"}, {"measurement": "Percent variation of paw volume with respect to 0 time, 6h", "setting": "[2]", "result": 76.48, "unit": "%"}, {"measurement": "paw average volume, 6h", "setting": "[2]", "result": 2.79, "unit": "mL"}, {"measurement": "paw average volume, Basal", "setting": "[2]", "result": 1.58, "unit": "mL"}, {"measurement": "antiinflammatory activity compared with ASA", "setting": "[2]; equal amounts by weight", "result": "good antiinflammatory activity, substantially equal to the one of ASA"}]}, {"smiles": "O=C([O-])c1ccccc1O.[Na+]", "note": "[SODIUM SALICYLATE, sodium salicylate]", "values": [{"measurement": "time of plasma peak", "setting": "[3]; oral, equimolecular doses", "result": "second hour"}, {"measurement": "concentration at 1 h", "setting": "[3]; rat, in vivo, po, 300 mg/kg", "result": 362, "unit": "µg/mL"}, {"measurement": "concentration at 2 h", "setting": "[3]; rat, in vivo, po, 300 mg/kg", "result": 534, "unit": "µg/mL"}, {"measurement": "concentration at 4 h", "setting": "[3]; rat, in vivo, po, 300 mg/kg", "result": 470, "unit": "µg/mL"}, {"measurement": "concentration at 8 h", "setting": "[3]; rat, in vivo, po, 300 mg/kg", "result": 456, "unit": "µg/mL"}, {"measurement": "concentration at 12 h", "setting": "[3]; rat, in vivo, po, 300 mg/kg", "result": 325, "unit": "µg/mL"}]}]}
